Assay results: patent publication US11478461B2, “[1.1.1] bicyclo compounds as indoleamine 2,3-dioxygenase inhibitors” (Merck Sharp & Dohme Corp., priority 2018, dated 2022)

Each molecule was assayed against IDO1 (Homo sapiens, UniProt P14902) (assay: IDO1 Cellular Assay in Hela Cells Stimulated with IFNγ). Conditions: IFNγ 100 ng/mL, 300 uM L-tryptophan, about 48 hours, fluorescence readout, read-out: IDO1 HELA Cell Assay, IC50.
Type: cell-based
Experimental: Biological Assays IDO1 Cellular Assay in Hela Cells Stimulated with IFNγ
Hela cells were cultured in complete Hela culture medium ([…], 10% heat-inactivated fetal bovine serum) and expanded to about 1×10^9 cells. The cells were then collected and frozen down at 10×10^6 cells/vial in 1 mL frozen medium (90% complete Hela culture medium, 10% DMSO).
Compounds to be tested were serially diluted in ten 3-fold steps in DMSO starting from 10 mM DMSO stocks in Echo low volume plate(s). Compound dilutions or DMSO alone were then dispensed from the dilution plate(s) into Greiner black 384-well assay plate(s) (catalog #781086, 50 nL/well) using an Echo 550 acoustic liquid handler (Labcyte).
Frozen Hela cells were thawed and transferred into Hela assay medium (99% complete Hela culture medium, 1% Pen/Strep) with 20 mL medium/vial of cells. The cells were spun down at 250 g in a table top centrifuge for 5 min and suspended in same volume of Hela assay medium. […] Sterile L-tryptophan were added to the cells with final concentration of 300 uM L-tryptophan. A small aliquot (2 mL/plate) of Hela cells were set aside and were not treated with IFNγ, to serve as the Max-E control. The rest of Hela cells were added with sterile IFNγ (Cat #285-IF, R & D systems) with a final concentration of 100 ng/mL.
Hela cells with and without IFNγ were dispensed to the respective wells of 384-well assay plates containing the compounds. The plates were incubated for about 48 hours at a 37° C., 5% CO2 incubator. Afterwards, 12 μL of 0.5 M methyl isonipecotate in dimethyl sulfoxide were added into each well and the plates were sealed and incubated at 37° C. without CO2 overnight. The plates were centrifuged for 1 min at 200×g. The resulting fluorescence was measured in a Spectramax plate reader (Molecular Devices) with a 400 nm excitation filter and a 510 nm emission filter.
Potencies were calculated by […] least squares fit to the four parameter logistic IC50 equation.

IDO1, sequence (P14902 whole entry): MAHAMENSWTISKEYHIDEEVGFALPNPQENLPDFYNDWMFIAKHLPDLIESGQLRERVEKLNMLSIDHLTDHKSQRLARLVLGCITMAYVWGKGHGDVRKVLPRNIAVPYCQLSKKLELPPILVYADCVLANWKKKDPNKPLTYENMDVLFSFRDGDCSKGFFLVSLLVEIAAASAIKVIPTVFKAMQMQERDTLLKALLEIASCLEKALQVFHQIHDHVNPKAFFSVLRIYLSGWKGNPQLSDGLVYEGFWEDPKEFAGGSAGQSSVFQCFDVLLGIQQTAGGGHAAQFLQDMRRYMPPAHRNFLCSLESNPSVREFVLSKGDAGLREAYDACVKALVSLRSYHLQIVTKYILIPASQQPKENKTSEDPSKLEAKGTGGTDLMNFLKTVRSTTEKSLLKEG

First: C[C@H](C(=O)Nc1ccc(F)cc1)C12CC(NC(=O)c3ccc(F)c(F)c3)(C1)C2 [Example 69, (S)-3,4-Difluoro-N-(3-(1-((4-fluorophenyl)amino)-1-oxopropan-2-yl)bicyclo[1.1.1]pentan-1-yl)benzamide]
Second: C[C@H](C(=O)Nc1ccc(F)cc1)C12CC(NC(=O)c3ccc(C#N)c(Cl)c3)(C1)C2 [Example 150, (S)-3-chloro-4-cyano-N-(3-(1-((4-fluorophenyl)amino)-1-oxopropan-2-yl)bicyclo[1.1.1]pentan-1-yl)benzamide]
The IC50 of the first is 2-fold lower: 23.6 nM for the first, 48.3 nM for the second. The first is the more potent here.

First: C[C@H](C(=O)Nc1ccc(F)cc1)C12CC(NC(=O)c3ccc4cccnc4c3)(C1)C2 [Example 147, (S)-N-(3-(1-((4-fluorophenyl)amino)-1-oxopropan-2-yl)bicyclo[1.1.1]pentan-1-yl)quinoline-7-carboxamide]
Second: Cc1ccnc(C(=O)NC23CC([C@H](C)C(=O)Nc4ccc(F)cc4)(C2)C3)n1 [Example 57, N-[3-[(1S)-2-(4-fluoroanilino)-1-methyl-2-oxo-ethyl]-1-bicyclo[1.1.1]pentanyl]-4-methyl-pyrimidin-1-ium-2-carboxamide]
The IC50 of the first is 11-fold higher: 176 nM for the first, 15.7 nM for the second.

`C[C@H](C(=O)Nc1ccc(F)cc1)C12CC(NC(=O)c3ccc(Cl)c(Cl)n3)(C1)C2` [Example 149, (S)-5,6-dichloro-N-(3-(1-((4-fluorophenyl)amino)-1-oxopropan-2-yl)bicyclo[1.1.1]pentan-1-yl)picolinamide] and `C[C@H](C(=O)Nc1ccc(C(F)(F)F)cc1)C12CC(NC(=O)c3ccc(Cl)c(Cl)c3)(C1)C2` [Example 98, (S)-3,4-dichloro-N-(3-(1-oxo-1-((4-(trifluoromethyl)phenyl)amino)propan-2-yl)bicyclo[1.1.1]pentan-1-yl)benzamide] are within 1.5-fold of each other in IC50: 26.9 nM for the first, 23.2 nM for the second.

First: CC(C(=O)Nc1ccc(Cl)nc1)C12CC(NC(=O)c3ccc4c(c3)CC4)(C1)C2 (centres unmarked) [Example 18, N-(3-(1-((6-chloropyridin-3-yl)amino)-1-oxopropan-2-yl)bicyclo[1.1.1]pentan-1-yl)bicyclo[4.2.0]octa-1(6),2,4-triene-3-carboxamide]
Second: C[C@@H](C(=O)Nc1ccc(C(F)(F)F)cc1)C12CC(NC(=O)c3ccc(Cl)c(Cl)c3)(C1)C2 [Example 92, (R)-3,4-dichloro-N-(3-(1-oxo-1-((4-(trifluoromethyl)phenyl)amino)propan-2-yl)bicyclo[1.1.1]pentan-1-yl)benzamide]
The IC50 of the first is 2.2-fold lower: 2.91 nM for the first, 6.43 nM for the second.

First: CC(C)(NC(=O)c1ccc(F)cc1)C12CC(NC(=O)c3ccc(Cl)c(Cl)c3)(C1)C2 [Example 103, 3,4-Dichloro-N-(3-(2-(4-fluorobenzamido)propan-2-yl)bicyclo[1.1.1]pentan-1-yl)benzamide]
Second: C[C@H](C(=O)Nc1cnc(Cl)c(Cl)c1)C12CC(NC(=O)c3ccc(Cl)c(Cl)c3)(C1)C2 [Example 93, (S)-3,4-dichloro-N-(3-(1-((5,6-dichloropyridin-3-yl)amino)-1-oxopropan-2-yl)bicyclo[1.1.1]pentan-1-yl)benzamide]
The IC50 of the first is 2.2-fold lower: 46.9 nM for the first, 105 nM for the second. The first is the more potent here.

`CC(C(=O)Nc1ccc(F)cc1)C12CC(NC(=O)c3cccc4c3CC(=O)N4)(C1)C2` (centres unmarked) [Example 121, N-[3-[2-(4-fluoroanilino)-1-methyl-2-oxo-ethyl]-1-bicyclo[1.1.1]pentanyl]-2-oxo-indoline-4-carboxamide] and `CC(C(=O)Nc1ccc(F)cc1)C12CC(NC(=O)c3ccn4ccccc34)(C1)C2` (centres unmarked) [Example 127, N-[3-[2-(4-fluoroanilino)-1-methyl-2-oxo-ethyl]-1-bicyclo[1.1.1]pentanyl]indolizine-1-carboxamide] are within 1.5-fold of each other in IC50: 131 nM for the first, 186 nM for the second.

Compared with `C[C@H](C(=O)Nc1ccc(F)cc1)C12CC(NC(=O)OC(C)(C)C)(C1)C2` (single isomer, unassigned) [Example 32], `N#Cc1cccc(C(=O)NC23CC(C4(C(=O)Nc5ccc(F)cc5)CCC4)(C2)C3)c1` [Example 4, 3-cyano-N-(3-(1-((4-fluorophenyl)carbamoyl)cyclobutyl)bicyclo[1.1.1]pentan-1-yl)benzamide] is 2.4-fold lower in IC50: 115 nM for the first, 47.8 nM for the second.
